For orientation: IC50 means the concentration needed to halve the response being measured. A lower IC50 goes with higher potency.

The structures appear in SMILES notation.

This assay has as its target T1, hMOR-1 (Homo sapiens, UniProt P35372).
T1 construct: gene OPRM1; classical 7TM splice variant, C-terminal GFP fusion kept (pcDNA3-GFP), stably expressed in HEK 293 cells
Briefly: cell-based. The text has this: inhibition of forskolin-stimulated cAMP accumulation, [3H]-cAMP competition assay on hMOR-1

T1 sequence (P35372 whole entry, the tested form may be a part, canonical isoform): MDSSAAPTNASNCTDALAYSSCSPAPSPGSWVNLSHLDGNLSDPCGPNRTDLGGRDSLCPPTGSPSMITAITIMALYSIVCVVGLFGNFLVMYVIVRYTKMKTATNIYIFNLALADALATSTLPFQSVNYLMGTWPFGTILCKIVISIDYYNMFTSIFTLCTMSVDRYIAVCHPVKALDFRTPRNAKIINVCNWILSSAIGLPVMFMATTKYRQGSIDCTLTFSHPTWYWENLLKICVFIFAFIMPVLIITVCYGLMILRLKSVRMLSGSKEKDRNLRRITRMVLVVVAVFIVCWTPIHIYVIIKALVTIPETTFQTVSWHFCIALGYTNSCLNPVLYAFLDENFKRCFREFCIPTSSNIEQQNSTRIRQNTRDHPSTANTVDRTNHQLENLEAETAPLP

`CN1CC[C@]23c4c5ccc(O)c4O[C@H]2[C@@H](O[C@@H]2O[C@H](C(=O)O)[C@@H](O)[C@H](O)[C@H]2O)C=C[C@H]3[C@H]1C5` [M6G]: the IC50 was 27.3 ± 11.2 nM.

For the origin of these results see article PMC3741380, “The N-Terminally Truncated µ3 and µ3-Like Opioid Receptors Are Transcribed from a Novel Promoter Upstream of Exon 2 in the Human OPRM1 Gene” (PLoS ONE, 2013).
